According to patent US11266645B2, “Methods for treating lymphoma” (Alexion Pharmaceuticals, Inc., priority 2018, dated 2022):
Read-outs that look alike come from different tables or passages of the source.

Experiments:
[1] = tested on: patients with relapsed or refractory PTCL; settings: cited from earlier work; for ORR / CR / DOR: relapsed/refractory PTCL; for ORR: brentuximab only anaplastic large cell lymphoma
Primary CLL cells = Primary CLL cells with IL-4/CD40L, immunoblotting and annexin V/PI viability; assay type: cell-based, human; settings: for IL-4/CD40L induced Mcl-1 and Bcl-XL expression: 1 μM
Method: Combination studies were performed with 10 or 100 nM venetoclax or 300 and 1000 nM S63846. Cell viability was assessed by annexin V/PI using flow cytometry and changes in protein expression by immunoblotting.

## O=C(/C=C/c1cccc(S(=O)(=O)Nc2ccccc2)c1)NO [Belinostat]
[1]; Table 1
  Grade 3/4 AEs: Anemia: Anemia: 11%
  Grade 3/4 AEs: Fatigue: Fatigue: 5%
  Grade 3/4 AEs: Thrombocytopenia: Thrombocytopenia: 7%
[1]; r/r PTCL, Table 2
  Toxicities ≥ Grade 3: Anemia: 11%
  Toxicities ≥ Grade 3: Asthenia/Fatigue: 5%
  Toxicities ≥ Grade 3: Infection: 8.5%^
  Toxicities ≥ Grade 3: Pyrexia: 2%
  Toxicities ≥ Grade 3: Thrombocytopenia: 7%
[1]
  ORR: ORR: 26%
  CR: (11% CR)
  DOR: DOR: 8.4 months
[1]; listed as belinostat
  ORR: approximately 25%

## C#CCC(Cc1cnc2nc(N)nc(N)c2n1)c1ccc(C(=O)N[C@@H](CCC(=O)O)C(=O)O)cc1 (some centres unmarked) [Pralatrexate]
[1]; Table 1
  Grade 3/4 AEs: Anemia: Anemia: 17%
  Grade 3/4 AEs: Fatigue: Fatigue: 7%
  Grade 3/4 AEs: Mucositis: Mucositis: 21%
  Grade 3/4 AEs: Neutropenia: Neutropenia: 20%
  Grade 3/4 AEs: Thrombocytopenia: Thrombocytopenia: 33%
[1]; r/r PTCL, Table 2
  Toxicities ≥ Grade 3: Anemia: 17%
  Toxicities ≥ Grade 3: Asthenia/Fatigue: 8%
  Toxicities ≥ Grade 3: Leukopenia: 7%
  Toxicities ≥ Grade 3: Mucositis: 23%
  Toxicities ≥ Grade 3: Neutropenia: 20%
  Toxicities ≥ Grade 3: Pyrexia: 2%
  Toxicities ≥ Grade 3: Sepsis: 5%
  Toxicities ≥ Grade 3: Thrombocytopenia: 33%
[1]
  ORR: ORR: 27%
  CR: (6% CR)
  DOR: DOR: 9.4 months
[1]; listed as pralatrexate
  ORR: approximately 25%

## c1cn2cc(-c3ccc4cn[nH]c4c3)nc(Nc3ccc(N4CCOCC4)cc3)c2n1 [entospletinib, reference compound]
Primary CLL cells
  IL-4/CD40L induced Mcl-1 and Bcl-XL expression: significantly reduced

## Brentuximab
[1]; Table 1
  Grade 3/4 AEs: Neutropenia: Neutropenia: 21%
  Grade 3/4 AEs: Peripheral sensory neuropathy: Peripheral sensory neuropathy: 10%
  Grade 3/4 AEs: Thrombocytopenia: Thrombocytopenia: 10%
[1]; r/r PTCL, Table 2
  Toxicities ≥ Grade 3: Anemia: 2%
  Toxicities ≥ Grade 3: Asthenia/Fatigue: 4%
  Toxicities ≥ Grade 3: Diarrhea/Colitis: 3%
  Toxicities ≥ Grade 3: Neutropenia: 21%
  Toxicities ≥ Grade 3: Pyrexia: 2%
  Toxicities ≥ Grade 3: Thrombocytopenia: 10%
[1]
  ORR: ORR: 86%
  CR: (57% CR)
  DOR: DOR: 12.6 months

## C/C=C1\NC(=O)[C@H]2CSSCC/C=C/[C@H](CC(=O)N[C@H](C(C)C)C(=O)N2)OC(=O)[C@H](C(C)C)NC1=O [Romidepsin]
[1]; Table 1
  Grade 3/4 AEs: Fatigue: Fatigue: 13%
  Grade 3/4 AEs: Nausea: Nausea: 4%
  Grade 3/4 AEs: Thrombocytopenia: Thrombocytopenia: 21%
[1]; r/r PTCL, Table 2
  Toxicities ≥ Grade 3: Anemia: 11-28%
  Toxicities ≥ Grade 3: Asthenia/Fatigue: 8-19%
  Toxicities ≥ Grade 3: Infection: 19%
  Toxicities ≥ Grade 3: Leukopenia: 6-45%
  Toxicities ≥ Grade 3: Neutropenia: 20-47%
  Toxicities ≥ Grade 3: Pyrexia: 6-17%
  Toxicities ≥ Grade 3: Sepsis: 5%
  Toxicities ≥ Grade 3: Thrombocytopenia: 24-36%

## Cc1c(-c2c(-c3ccc(F)o3)sc3ncnc(O[C@H](Cc4ccccc4OCc4ccnn4CC(F)(F)F)C(=O)O)c23)ccc(OCCN2CCN(C)CC2)c1Cl [S63845, reference compound]
Primary CLL cells; CLL cells
  synergy with BCR kinase inhibitors including cerdulatinib, CLL cell death: synergized

## CC[C@H](Nc1ncnc2[nH]cnc12)c1nc2cccc(F)c2c(=O)n1-c1ccccc1 [idelalisib, reference compound]
Primary CLL cells
  IL-4/CD40L induced Mcl-1 and Bcl-XL expression: significantly reduced

## NC(=O)c1cnc(N[C@@H]2CCCC[C@@H]2N)nc1Nc1cccc(-n2nccn2)c1 [PRT062607, reference compound]
Primary CLL cells
  IL-4/CD40L induced Mcl-1 and Bcl-XL expression: significantly reduced
